Source: US10722484B2, “Methods of cancer treatment” (K-Gen, Inc., priority 2016, dated 2020)
Read-outs that look alike come from different tables or passages of the source.

Legend:
[1] = system: Mino (Mantle cell lymphoma); assay: Combination viability/proliferation assays; conditions: Mino; K101A (0.1 μM) or K102 (0.001 μM); especially below 0.1 μM cytarabine
Procedure: (§4) Briefly, cells at density of 1,000-10,000 cells/well in 96-well plates or 200-1600 cells/well in 384-well plates were seeded and incubated at 37° C. for 24 hours before addition of compounds. A series of 9 different concentrations of compound stocks (500×) were prepared by 3-fold serial dilutions in DMSO. […] After 96 hours of incubation, 35 μL or 50 μL of CellTiter Glo reagent (Promega) was added to each well and luminescence was measured after 10 minutes using EnVision (PerkinElmer). Luminescence from cells treated with DMSO alone was set as Max and % of inhibition was calculated as follows: Inhibition %=(Max-Sample value)/Max*100. Data were analyzed using XLfit software (ID Business Solutions Ltd.) or GraphPad software and IC50, relative IC50, and % of top inhibition were calculated.
Various drugs or compounds (Table 10) were screened and assayed in 384-well plates as 9-point 3-fold dilution series alone and in combination with 2-3 doses of the specified PKC activator compounds (e.g., K101A, K101E, and K102). The top concentration for the tested PKC activator compound was set at roughly the IC50 when the same testing compound was used as a single agent assayed in the same cell line. The next dose was either 3-fold or 10-fold dilution from the top concentration.
The PKC activating agents (e.g., K101A, K101E, and K102) in combination with other chemotherapeutic agents, including standard chemotherapies and certain chemotherapeutic agents targeting certain cell signaling pathways, were also examined on cancer cells other than lung cancer cells.

[2] = system: THP-1 human acute monocytic leukemia cells; assay: Combination viability/proliferation assays; conditions: K101A (0.3 μM) and K102 (0.005 μM)
Procedure: as §4
(§5) The top concentration for the tested PKC activator compound was set at roughly the IC50 when the same testing compound was used as a single agent assayed in the same cell line. The next dose was either 3-fold or 10-fold dilution from the top concentration.

[3] = system: HL-60 human promyelocytic leukemia cells; assay: Combination viability/proliferation assays
Procedure: as §4, §5

[4] = system: MV-4-11 human myelomonocytic leukemia; assay: Combination viability/proliferation assays; conditions: K101A (0.1 μM) or K102 (0.01 μM)
Procedure: as §4, §5

[5] = system: A549 lung cancer cell line; assay: Combination viability/proliferation assays (384-well IC50 ratio, 96-well MacSynergy II); type: cell-based; conditions: for Combination in A549: K101E (synergism/antagonism): agent assayed in combination with K101E
MiaPaCa-2 = assay: Combination viability/proliferation assays; type: cell-based
Procedure: (§1) A 96-well MacSynergy II format for combination test was also used. […] The analysis was done with the SQRT(Data) scale and the four parameter Hill curve was fitted using XLfit5.1 (the MacSynergy II Excel Spreadsheet) for the inhibition data. Synergy (positive number) or Antagonism (negative number) volumes were calculated. […] Three-dimensional MacSynergy II graphs were generated where positive values indicated synergism and negative values indicated antagonism.

Panc2.13 = assay: Combination viability/proliferation assays; type: cell-based; conditions: for effect in combination with K101A: Panc2.13, K101A at 1 μM or at 0.67 μM
Procedure: as §1

[6] = system: Namalwa (Burkitt's lymphoma); assay: Combination viability/proliferation assays; conditions: K101A (0.1 μM) or K102 (0.001 μM)
Procedure: as §4
Various drugs or compounds (Table 10) were screened and assayed in 384-well plates as 9-point 3-fold dilution series alone and in combination with 2-3 doses of the specified PKC activator compounds (e.g., K101A, K101E, and K102). The top concentration for the tested PKC activator compound was set at roughly the IC50 when the same testing compound was used as a single agent assayed in the same cell line. The next dose was either 3-fold or 10-fold dilution from the top concentration. […]

Panc1 = assay: Combination viability/proliferation assays; type: cell-based; conditions: for Combination effect, Panel: K102: agent in combination with K102
Procedure: as §1

[7] = system: colon cancer cell line Colo205; assay: MacSynergy combination experiments; type: cell-based
Procedure: as §1

[8] = system: pancreatic, lung, colon and leukemia cancer cell lines; assay: Proliferation assay, summary over the panel of cancer cell lines; type: cell-based
Procedure: PKC activator compounds were tested in a panel of K-RAS mutant pancreatic, lung, and colon cancer cell lines, as well as a number of leukemia cell lines having either mutant K-RAS or N-RAS.
(§2) The dose range for most compounds was 4.6 nM-30 μM. The dose ranges for some compounds were adjusted downward to 0.46 nM-3 μM or 0.08 nM-0.5 μM or 0.03 nM-0.2 μM. […] The results are shown in Tables 3-6 for pancreatic cancer, lung cancer, colon/gastric cancer, and leukemia.

H838 = assay: Proliferation assay (CellTiter Glo); type: cell-based; conditions: H838 (RAS WT); 96 hours
Procedure: as §2
(§3) Other cancer cell lines having wild-type K-RAS status and K-RAS mutation at G12 were also screened using the PKC activator compounds. […] K104 was tested in a range of 0.03 nM-0.2 μM. […] The dose ranges were adjusted downward to 0.46 nM-3 μM for K102 and 0.08 nM-0.5 μM for K103 for some cell lines. The results of the screening of cancer cells lines with wild-type K-RAS status and K-RAS mutations at the G12 positions are presented in Table 7.

BxPC-3 = assay: Proliferation assay (CellTiter Glo); type: cell-based; conditions: BxPC-3 (RAS WT); 96 hours
Procedure: as §2, §3

Colo205 = assay: Proliferation assay (CellTiter Glo); type: cell-based; conditions: Colo205 (RAS WT); 96 hours
Procedure: as §2, §3

H1915 = assay: Proliferation assay (CellTiter Glo); type: cell-based; conditions: H1915 (RAS WT); 96 hours
Procedure: as §2, §3

HT29 = assay: Proliferation assay (CellTiter Glo); type: cell-based; conditions: HT29 (RAS WT); 96 hours
Procedure: as §2, §3

Pan2.13 = assay: Proliferation assay (CellTiter Glo); type: cell-based
Procedure: as §2

Pan2.03 = assay: Proliferation assay (CellTiter Glo); type: cell-based
Procedure: as §2

AsPC-1 = assay: Proliferation assay (CellTiter Glo); type: cell-based
Procedure: as §2

CCRF-CEM = assay: Proliferation assay (CellTiter Glo); type: cell-based; conditions: CCRF-CEM
Procedure: as §2

[9] = agent assayed in combination with K101A, A549, * 2-3 concentrations, # full concentration ranges
[10] = agent assayed in combination with K102, A549, * 2-3 concentrations, # full concentration ranges
[11] = A549, in combination with 0.005 μM K101A, NC: no change
[12] = A549, in combination with 0.05 μM K101A, NC: no change
[13] = A549, in combination with 0.5 μM K101A, ratio >2 synergistic, <0.5 antagonistic, NC: no change
[14] = PKC activator compounds (K101A, K101E, K102)

`Nc1ccn([C@@H]2O[C@H](CO)[C@@H](O)[C@@H]2O)c(=O)n1` [Cytarabine] was tested, and the “effect in combination with K101A or K102” value [1] was “synergistic anti-proliferative effect”, the “effect in combination with K101A and K102” value (from here on “effect … with K101A and K102”) [2] was “synergy” and the “effect … with K101A and K102” value [3] was “strong synergy”. For the same compound, the “shift of the inhibition curve to the left” value ([3]; in combination with K101A (0.3 μM)) was “half-log” and the “shift of the inhibition curve to the left” value ([3]; in combination with K102 (0.005 μM)) was “full-log”.
With `CC1=C(/C=C/C(C)=C/C=C/C(C)=C/C(=O)O)C(C)(C)CCC1` [ATRA, all-trans-retinoic acid] the “shift of the inhibition curve up” value [4] was 5-20%, the “effect … with K101A and K102” value [3] was “strong synergy” and the “shift of the inhibition curve up” value ([3]; addition of K101A (0.3 μM) or K102 (0.005 μM), after subtracting inhibition by K101A or K102 alone) was 5-40%.
`CS(=O)(=O)c1ccc(C(=O)Nc2ccc(Cl)c(-c3ccccn3)c2)c(Cl)c1` [Vismodegib] was tested, and the “Combination in A549: K101A (synergism/antagonism)” value [5] was “Synergism”, the “Combination in A549: K102 (synergism/antagonism)” value [5] was “Synergism” and the “effect in combination with the PKC activator compounds in inhibiting the growth of A549 cells” value [5] was “strong synergy”. For the same compound, the “inhibition of cell proliferation by the agent alone” value [5] was “did not inhibit”, the “inhibition of proliferation by the agent alone” value (MiaPaCa-2; alone at 10 μM) was “did not inhibit” and the “effect in combination with K101A or K102 (synergy)” value (MiaPaCa-2; at 1 μM) was “not”. For the same compound, the “effect in combination with K101A or K102” value (MiaPaCa-2; at 10 μM) was “synergy”.
With `O=c1nc(-c2ccc(C(F)(F)F)cc2)[nH]c2c1CSCC2` [XAV-939, 2-[4-(trifluoromethyl)phenyl]-1,5,7,8-tetrahydrothiopyrano[4,3-d]pyrimidin-4-one] the “Ratio ([…] DMSO IC50/combination IC50)” value ([5]; A549, in combination with 0.013 μM K102) was greater than 2, the “Ratio ([…] DMSO IC50/combination IC50)” value ([5]; A549, in combination with 0.04 μM K102) was greater than 2 and the “Ratio ([…] DMSO IC50/combination IC50)” value ([5]; A549, in combination with 0.33 uM K101A) was 2.55. The “Ratio ([…] DMSO IC50/combination IC50)” value ([5]; A549, in combination with 1 uM K101A) was 4.23, the “effect in combination with K101A or K102 in inhibiting the growth of A549 cells” value ([5]; K101A or K102) was “strong synergistic effect” and the “Combination in A549: K101A (synergism/antagonism)” value [5, 9] was “Synergism”. The “Combination in A549: K102 (synergism/antagonism)” value [5, 10] was “Synergism”, the “effect in combination with K101A” value (Panc2.13) was “strong synergy” and the “effect in combination with low doses of K101A or K102” value (MiaPaCa-2; K101A (0.166 and 1 μM) or K102 (0.0017 and 0.005 μM)) was “additive effects”.
`CC[C@H](Nc1ncnc2[nH]cnc12)c1nc2cccc(F)c2c(=O)n1-c1ccccc1` [Idelalisib] was tested, and the “Ratio ([…] DMSO IC50/combination IC50)” value ([5]; A549, in combination with 0.0002 μM K102, NC: no change) was 0.81, the “Ratio ([…] DMSO IC50/combination IC50)” value ([5]; A549, in combination with 0.002 μM K102, NC: no change) was 1.76 and the “Ratio ([…] DMSO IC50/combination IC50)” value [5, 11] was 1.04. For the same compound, the “Ratio ([…] DMSO IC50/combination IC50)” value ([5]; A549, in combination with 0.02 μM K102, NC: no change) was 3.55, the “Ratio ([…] DMSO IC50/combination IC50)” value [5, 12] was 1.89 and the “Ratio ([…] DMSO IC50/combination IC50)” value [5, 13] was 5.05. For the same compound, the “effect in combination with the PKC activator compounds in inhibiting the growth of A549 cells” value [5, 14] was “strong synergy”, the “Combination in A549: K101A (synergism/antagonism)” value [5, 9] was “Synergism” and the “Combination in A549: K101E (synergism/antagonism)” value ([5]; A549) was “Synergism”. The “Combination in A549: K102 (synergism/antagonism)” value [5, 10] was “Synergism”, the “effect in combination with K101A or K102” value [6] was “synergistic anti-proliferative effect” and the increase of inhibition ([6]; roughly 0.03-3 μM idelalisib/CAL-101) was “at least 20%”.
`N.N.[Cl][Pt][Cl]` [Cisplatin] was tested, and the “dose range for the strongest synergy” value ([5]; A549, cisplatin combined with PKC activator compounds (FIG. 6A)) was 0.625 to 2.5 µM, the “Ratio ([…] DMSO IC50/combination IC50)” value [5, 11] was 0.53 and the “Ratio ([…] DMSO IC50/combination IC50)” value ([5]; A549, in combination with 0.04 μM K102 (footnote, Cisplatin)) was 2.61. The “Ratio ([…] DMSO IC50/combination IC50)” value [5, 12] was 0.86, the “Ratio ([…] DMSO IC50/combination IC50)” value ([5]; A549, in combination with 0.13 μM K102 (footnote, Cisplatin)) was 2.52 and the “Ratio ([…] DMSO IC50/combination IC50)” value [5, 13] was 2.68. For the same compound, the “Ratio ([…] DMSO IC50/combination IC50)” value ([5]; A549, in combination with 1 μM K101E (footnote, Cisplatin)) was 1.37, the “Ratio ([…] DMSO IC50/combination IC50)” value ([5]; A549, in combination with 3 μM K101E (footnote, Cisplatin)) was 1.75 and the “synergy at cisplatin dose levels higher than […]” value ([5]; A549, with PKC activator compounds) was “minimal synergy”. The “effect in combination with the PKC activator compounds in inhibiting the growth of A549 cells” value [5, 14] was “strong synergistic effect”, the “Combination in A549: K101A (synergism/antagonism)” value [5, 9] was “Synergism (strong)” and the “Combination in A549: K101E (synergism/antagonism)” value ([5]; A549) was “None”. The “Combination in A549: K102 (synergism/antagonism)” value [5, 10] was “Synergism (strong)”, the “effect at highest concentrations of combination agents” value (Panc1; Panc1, with K101A or K102) was “Slight antagonism” and the “Combination effect, Panel: K102” value (Panc1) was “None”. For the same compound, the “Combination effect, Panel: K102” value (Panc1; listed as cisplatin) was “not”, the “effect in combination with K101A” value (Panc2.13) was “strong synergy” and the “Combination effect, Panc2.13: K101A” value (Panc2.13; agent in combination with K101A) was “Synergism”. For the same compound, the “synergy volume (MacSynergy)” value ([7]; Colo205, in combination with K101A (column not headed)) was 49 and the “synergy volume (MacSynergy)” value ([7]; Colo205, in combination with K102 (column not headed)) was 41.
With `CCC/C=C/C=C/C(=O)O[C@H]1/C(=C/C(=O)OC)C[C@H]2C[C@H]([C@@H](C)O)OC(=O)C[C@H](O)C[C@@H]3C[C@H](OC(C)=O)C(C)(C)[C@](O)(C[C@@H]4C/C(=C/C(=O)OC)C[C@H](/C=C/C(C)(C)[C@]1(O)O2)O4)O3` [Compound K104, Bryostatin 1] the “activity in the proliferation assay / cancer cell lines” value [8] was “much lower activity”, the “potency in proliferation inhibition relative to prostratin” value ([8]; comparison with prostratin) was “less potent” and the “Top Inhibition %” value (H838) was 20.0%. The “Top Inhibition %” value (BxPC-3) was 3.99%, the “Top Inhibition %” value (Colo205) was 49.4% and the “Top Inhibition %” value (H1915) was 25.1%. The “Top Inhibition %” value (HT29) was 4.3%, the EC50 (Pan2.13; 96 h, read-out: Ab EC50) was greater than 200 nM and the “Top Inhibition %” value (Pan2.13; Pan2.13, % of top inhibition, 96 hours) was 32.2%. The EC50 (Pan2.03; 96 h, read-out: Ab EC50) was greater than 200 nM, the “Top Inhibition %” value (Pan2.03; Pan2.03, % of top inhibition, 96 hours) was 0.0% and the “Top Inhibition %” value (AsPC-1; AsPC-1, % of top inhibition, 96 hours) was 4.2%. For the same compound, the EC50 (AsPC-1; Homo sapiens, ASPC1, 96 h, read-out: Ab EC50) was greater than 200 nM, the “Top Inhibition %” value (CCRF-CEM; % of top inhibition, 96 hours) was 6.0% and the EC50 (CCRF-CEM; Homo sapiens, 96 h, read-out: Ab EC50) was greater than 200 nM.
